# Patent US5089623A, “Certain imidate insecticides” (Imperial Chemical Industries Plc, priority 1990, dated 1992)
# Columns and labels:
# Assay type in all cases: in vivo
# [1] = tested on: Housefly [Musca domestica]; assay: Housefly insecticidal test (HF); settings: per 25 female houseflies, 48 hours
# [2] = tested on: Tobacco Budworm [Heliothis virescens (Fabricius)] eggs; assay: Tobacco budworm egg test (TBW-E); settings: percent in solution
# [3] = tested on: Aster Leafhopper [Macrosteles fascifrens (Stal)]; assay: Aster leafhopper test (LH); settings: adults/nymphs, 48 hours, percent in solution
# [4] = tested on: Maize weevil [Sitophilus Zeamais (Motschulsky)]; assay: Maize weevil test (MW); settings: adult weevils, treated corn seeds, 48 hours, percent in solution
# In short: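 Adult weevils (10) were placed with four corn seeds that had been dipped 2-3 s in compound dissolved in 50:50 acetone:water, then dried, and held at about 25° C. Mortality was scored at 48 h. LC50 was taken from dosage-mortality curves and expressed as percent compound in solution, from a 0.01% top concentration.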
# [5] = tested on: Cabbage Looper [Trichoplusia ni (Hubner)]; assay: Cabbage looper test (CL); settings: second-instar larvae, 3-5 days, percent in solution
SMILES,LC50 HF [1],LC50 TBW E [2],LC50 LH [3],LC50 MW [4],LC50 CL [5]
CC(C)C(=Nc1ccc(OC(F)(F)F)cc1)OCc1cccc(Cc2ccccc2)c1 [Compound 542],> 100 µg,> 0.1%,> 0.05%,> 0.01%,> 0.01%
C=C(C)C(=Nc1ccc(Cl)cc1)OCc1cccc(Oc2ccccc2)c1 [Compound 6],17 µg,0.015%,> 0.05%,> 0.01%,0.02%
CC(C)C(=Nc1ccc(F)c(Cl)c1)OCc1cccc(OCc2ccc(F)cc2)c1 [Compound 490],> 100 µg,> 0.1%,> 0.05%,> 0.01%,0.0045%
Cc1cccc(N=C(OCc2cccc(Oc3ccc(Cl)cc3)n2)C(C)C)c1 [Compound 545],< 100 µg,> 0.1%,> 0.05%,> 0.01%,> 0.1%
Cc1cc(N=C(OCc2ccc(F)c(Oc3ccc(F)cc3)c2)C(C)C)ccc1Br [Compound 359],< 100 µg,0.023%,0.05%,> 0.01%,> 0.1%
CC(C)C(=Nc1ccc2c(c1)OCO2)OCc1ccc(F)c(Oc2ccc(Cl)cc2)c1 [Compound 366],< 100 µg,0.012%,0.05%,> 0.01%,0.0007%
CC(C)C(=Nc1ccc(F)c(Cl)c1)OCc1cccc(Oc2ccc(Br)cc2)n1 [Compound 492],15 µg,0.015%,> 0.05%,> 0.01%,0.00028%
CCC(=Nc1ccc2c(c1)OCO2)OCc1cccc(Oc2ccccc2)c1 [Compound 178],6 µg,> 0.1%,> 0.05%,> 0.01%,0.004%
C#CCc1c(F)c(F)c(COC(=Nc2cccc(C(F)(F)F)c2)C(C)C)c(F)c1F [Compound 546],< 100 µg,> 0.1%,< 0.05%,0.0032%,0.0001%
CC(C)C(=Nc1ccc2c(c1)OCO2)OCc1cccc(Oc2ccc(Cl)cc2)c1 [Compound 240],14 µg,0.04%,> 0.05%,> 0.01%,0.0003%
CSc1cccc(N=C(OCc2ccc(F)c(Oc3ccccc3)c2)C(C)C)c1 [Compound 362],< 100 µg,> 0.1%,> 0.05%,> 0.01%,> 0.1%
COc1ccc(N=C(OCc2ccc(F)c(Oc3ccc(F)cc3)c2)C(C)C)cc1OC [Compound 363],< 100 µg,> 0.1%,> 0.05%,> 0.01%,> 0.1%
N#CC(=Nc1ccc(Cl)cc1)OCc1cccc(Oc2ccccc2)c1 [Compound 21],7 µg,> 0.1%,> 0.05%,> 0.01%,0.02%
Cc1ccc(N=C(OCc2ccc(F)c(Oc3ccccc3)c2)C(C)C)cc1Cl [Compound 356],< 100 µg,0.025%,< 0.05%,> 0.01%,> 0.1%
Cc1cccc(N=C(OCc2cccc(Oc3ccccc3)c2)C(C)C)c1 [Compound 155],9 µg,0.06%,> 0.05%,> 0.01%,0.004%
CC(C)C(=Nc1cccc(I)c1)OCc1cccc(Oc2ccc(F)cc2)c1 [Compound 255],16 µg,0.075%,0.0005%,> 0.01%,0.00017%
CC(C)C(=Nc1ccc(F)c(Cl)c1)OCc1cccc(Oc2ccccn2)c1 [Compound 549],< 100 µg,> 0.1%,> 0.05%,> 0.01%,> 0.1%
COCc1c(F)c(F)c(COC(=Nc2ccc(C(C)(C)C)cc2)C(C)C)c(F)c1F [Compound 544],> 100 µg,> 0.1%,> 0.05%,> 0.01%,> 0.1%
CC(C)C(=Nc1ccc(Br)cc1F)OCc1cccc(Oc2ccc(F)cc2)c1 [Compound 351],26 µg,> 0.1%,> 0.05%,> 0.01%,0.0007%

SMILES,LC50 HF [1],LC50 TBW E [2],LC50 LH [3],LC50 MW [4],LC50 CL [5]
CC(C)C(=Nc1ccc(C(C)(C)C)cc1)OCc1cccc(Oc2ccccc2)c1 [Compound 153],> 100 µg,0.1%,0.0005%,> 0.01%,0.004%
CC(C)(F)C(=Nc1ccc(F)c(Cl)c1)OCc1cc(Oc2ccc(F)cc2)ccc1F [Compound 316],100 µg,> 0.1%,> 0.05%,> 0.01%,0.0015%
CC(C)C(=Nc1ccc2c(c1)OCO2)OCc1cccc(Oc2ccc(Cl)cc2)n1 [Compound 466],13 µg,> 0.1%,> 0.05%,0.01%,0.0008%
c1ccc(Oc2cccc(COC(=Nc3ccc4c(c3)OCO4)C3CC3)c2)cc1 [Compound 177],13 µg,> 0.1%,> 0.05%,0.01%,0.002%
CC(C)C(=Nc1ccc2c(c1)OCO2)OCc1ccnc(Oc2ccccc2)c1 [Compound 540],> 100 µg,> 0.1%,> 0.05%,> 0.01%,< 0.1%
CC(C)C(=Nc1ccc(Cl)c(C(F)(F)F)c1)OCc1cccc(Oc2ccc(F)cc2)c1 [Compound 193],100 µg,> 0.1%,0.001%,> 0.01%,0.00075%
CC(C)C(=Nc1ccc(F)c(Cl)c1)OCc1cccc(Nc2ccc(F)cc2)c1 [Compound 512],35 µg,> 0.1%,> 0.05%,> 0.01%,0.003%
CC(C)C(=Nc1ccc(Cl)cc1)OCc1cccc(Oc2ccc(F)cc2)c1 [Compound 189],17 µg,0.07%,0.002%,> 0.01%,0.00027%
CC(C)C(=Nc1ccc(C(F)(F)F)cc1)OCc1cccc(Cc2ccccc2)c1 [Compound 543],< 100 µg,> 0.1%,< 0.05%,> 0.01%,0.0008%
CC(C)C(=Nc1ccc(C(F)(F)F)cc1)OCc1cccc(Oc2ccc(Cl)cc2)c1 [Compound 365],> 100 µg,0.038%,< 0.05%,> 0.01%,0.00025%
CCS(=O)(=O)c1ccc(N=C(OCc2cccc(Oc3ccccc3)c2)C(C)C)cc1Cl [Compound 112],> 100 µg,> 0.1%,> 0.05%,> 0.01%,0.025%
CC(C)C(=Nc1ccc(-c2ccccc2)cc1)OCc1cccc(Oc2ccccc2)c1 [Compound 186],> 100 µg,> 0.1%,> 0.05%,> 0.01%,0.008%
Cc1ccc(N=C(OCc2ccc(F)c(Oc3ccc(F)cc3)c2)C(C)C)cc1Cl [Compound 357],< 100 µg,> 0.1%,< 0.05%,0.01%,> 0.1%
"C#CC(OC(=Nc1ccc(F)c(Cl)c1)C(C)C)c1cccc(Oc2ccccc2)c1 (centres unmarked) [Compound 533, N-(3-chloro-4-fluorophenyl)-O-[1-(3-phenoxyphenyl)-2-propyn-1-yl]isobutyrimidate]",60 µg,> 0.1%,> 0.05%,> 0.01%,> 0.1%
CCC(=Nc1ccc(F)c(F)c1)OCc1coc(Cc2ccccc2)c1 [Compound 524],5.2 µg,> 0.1%,> 0.05%,> 0.01%,> 0.1%
CC(C)C(=Nc1ccc2c(c1)OCO2)OCc1cccc(Oc2ccc(C(C)(C)C)cc2)c1 [Compound 367],> 100 µg,> 0.1%,> 0.05%,> 0.01%,< 0.1%
CC(C)(F)C(=Nc1ccc(F)c(Cl)c1)OCc1cccc(Oc2ccc(F)cc2F)c1 [Compound 315],> 100 µg,> 0.1%,> 0.05%,> 0.01%,0.002%
C#CCc1c(F)c(F)c(COC(=Nc2ccc3c(c2)OCO3)C(C)C)c(F)c1F [Compound 547],< 100 µg,0.05%,< 0.05%,> 0.01%,0.0005%
